Test results as given in ChEMBL document CHEMBL4421717, “Antagonists and agonists of bitter taste receptors and uses thereof” (2012).
Active and inactive are the calls of the source. The rule behind the calls is not given here.

Assays:
Assay type in all cases: functional, cell-based
[1] = biological target: T1, Taste receptor type 2 member 10 (Homo sapiens) (UniProt Q9NYW0); test: Agonist activity at recombinant human N-terminal rat ST3 receptor-fused TAS2R10 expressed in HEK293T cells co-expressing Galpha16gust44 assessed as effect on intracellular calcium level at 100 uM by FLIPR assay
T1 sequence (whole entry): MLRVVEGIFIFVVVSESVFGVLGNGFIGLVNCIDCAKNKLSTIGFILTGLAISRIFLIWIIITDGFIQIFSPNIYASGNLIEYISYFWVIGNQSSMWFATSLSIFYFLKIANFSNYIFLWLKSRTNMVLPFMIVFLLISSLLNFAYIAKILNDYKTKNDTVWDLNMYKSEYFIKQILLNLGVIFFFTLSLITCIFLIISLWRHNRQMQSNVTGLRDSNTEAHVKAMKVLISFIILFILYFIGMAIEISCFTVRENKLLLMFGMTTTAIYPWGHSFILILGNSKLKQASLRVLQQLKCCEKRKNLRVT

[2] = biological target: T2, Taste receptor type 2 member 14 (Homo sapiens) (UniProt Q9NYV8); test: Agonist activity at recombinant human N-terminal rat ST3 receptor-fused TAS2R14 expressed in HEK293T cells co-expressing Galpha16gust44 assessed as effect on intracellular calcium level at 100 uM by FLIPR assay
T2 sequence (whole entry): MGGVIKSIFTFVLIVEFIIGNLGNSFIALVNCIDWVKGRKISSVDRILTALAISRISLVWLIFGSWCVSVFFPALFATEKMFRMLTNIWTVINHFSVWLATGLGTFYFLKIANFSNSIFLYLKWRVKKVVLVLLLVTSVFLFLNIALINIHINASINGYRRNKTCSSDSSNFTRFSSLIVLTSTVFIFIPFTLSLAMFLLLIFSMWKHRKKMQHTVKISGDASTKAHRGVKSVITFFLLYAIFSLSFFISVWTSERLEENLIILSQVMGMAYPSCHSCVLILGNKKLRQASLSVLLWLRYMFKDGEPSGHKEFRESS

[3] = biological target: T3, Taste receptor type 2 member 4 (Homo sapiens) (UniProt Q9NYW5); test: Activity at recombinant human N-terminal rat ST3 receptor-fused TAS2R4 expressed in HEK293T cells co-expressing Galpha16gust44 assessed as effect on colchicine-induced intracellular calcium level at 100 uM by FLIPR assay
T3 sequence (whole entry): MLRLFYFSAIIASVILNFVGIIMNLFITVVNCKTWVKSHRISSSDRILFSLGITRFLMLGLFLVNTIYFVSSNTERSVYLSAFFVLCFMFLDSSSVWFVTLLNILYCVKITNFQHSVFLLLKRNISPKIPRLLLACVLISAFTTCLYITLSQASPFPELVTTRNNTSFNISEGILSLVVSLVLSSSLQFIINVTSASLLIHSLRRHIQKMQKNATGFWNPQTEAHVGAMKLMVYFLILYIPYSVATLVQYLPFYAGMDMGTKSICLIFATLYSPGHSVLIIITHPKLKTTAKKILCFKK

[4] = biological target: T1, Taste receptor type 2 member 10 (Homo sapiens); test: Activity at recombinant human N-terminal rat ST3 receptor-fused TAS2R10 expressed in HEK293T cells co-expressing Galpha16gust44 assessed as effect on strychnine-induced intracellular calcium level at 100 uM by FLIPR assay
[5] = biological target: T2, Taste receptor type 2 member 14 (Homo sapiens); test: Activity at recombinant human N-terminal rat ST3 receptor-fused TAS2R14 expressed in HEK293T cells co-expressing Galpha16gust44 assessed as effect on aristolochic acids-induced intracellular calcium level at 100 uM by FLIPR assay
[6] = biological target: T4, Taste receptor type 2 member 16 (Homo sapiens) (UniProt Q9NYV7); test: Activity at recombinant human N-terminal rat ST3 receptor-fused TAS2R16 expressed in HEK293T cells co-expressing Galpha16gust44 assessed as effect on D-salicin-induced intracellular calcium level at 100 uM by FLIPR assay
T4 sequence (whole entry): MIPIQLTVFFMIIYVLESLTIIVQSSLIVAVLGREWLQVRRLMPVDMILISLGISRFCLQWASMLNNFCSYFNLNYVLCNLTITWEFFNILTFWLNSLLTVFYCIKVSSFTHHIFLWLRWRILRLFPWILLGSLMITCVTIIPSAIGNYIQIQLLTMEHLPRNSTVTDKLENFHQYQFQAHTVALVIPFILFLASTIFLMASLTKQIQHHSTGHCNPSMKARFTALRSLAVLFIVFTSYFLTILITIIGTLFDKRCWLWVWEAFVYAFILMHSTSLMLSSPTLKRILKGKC

[7] = biological target: T5, Taste receptor type 2 member 38 (Homo sapiens) (UniProt P59533); test: Activity at recombinant human N-terminal rat ST3 receptor-fused TAS2R38 expressed in HEK293T cells co-expressing Galpha16gust44 assessed as effect on phenylthiocarbamide-induced intracellular calcium level at 100 uM by FLIPR assay
T5 sequence (whole entry): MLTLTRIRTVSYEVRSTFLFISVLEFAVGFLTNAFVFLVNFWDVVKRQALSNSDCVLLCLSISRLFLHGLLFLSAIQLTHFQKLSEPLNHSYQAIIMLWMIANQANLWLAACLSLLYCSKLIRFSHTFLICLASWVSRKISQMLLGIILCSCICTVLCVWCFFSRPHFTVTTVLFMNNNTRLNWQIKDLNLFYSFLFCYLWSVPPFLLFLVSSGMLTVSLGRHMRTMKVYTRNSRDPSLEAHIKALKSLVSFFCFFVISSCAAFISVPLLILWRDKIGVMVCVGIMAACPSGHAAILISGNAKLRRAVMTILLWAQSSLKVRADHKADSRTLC

[8] = biological target: T6, Taste receptor type 2 member 46 (Homo sapiens, UniProt P59540); test: Antagonist activity at recombinant human N-terminal rat ST3 receptor-fused TAS2R46 expressed in HEK293T cells co-expressing Galpha16gust44 assessed as inhibition of 3 uM strychnine-induced intracellular calcium level 100 uM by FLIPR assay
T6 sequence (P59540 whole entry): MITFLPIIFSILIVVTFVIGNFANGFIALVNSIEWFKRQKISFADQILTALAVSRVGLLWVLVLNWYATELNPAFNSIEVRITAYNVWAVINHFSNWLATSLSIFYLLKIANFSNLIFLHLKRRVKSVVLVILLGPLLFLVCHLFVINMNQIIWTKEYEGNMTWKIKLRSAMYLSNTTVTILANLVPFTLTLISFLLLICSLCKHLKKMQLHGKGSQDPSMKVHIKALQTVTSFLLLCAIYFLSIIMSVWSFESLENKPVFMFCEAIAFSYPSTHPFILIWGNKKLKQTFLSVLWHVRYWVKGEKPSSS

SMILES	Activity [1]	Activity [2]	Activity [3]	Activity [4]	Activity [5]	Activity [6]	Activity [7]	IC50 [8] [µM]
C/C1=C\C[C@H](O)[C@@H](C)C[C@H]2OC(=O)[C@@H](C)C2CC1 (stereo partly specified)	Active	Active	inactive	inactive	inactive	inactive	inactive	84.9
C/C1=C\C[C@H](O)/C(C)=C/[C@H]2OC(=O)[C@@H](C)C2CC1 (stereo partly specified)	Active	Active	inactive	inactive	inactive	inactive	inactive	15.3
